Values after ≈ are worked out from the molar mass of the structure shown. Read-outs that look alike come from different tables or passages of the source. Marks after values point to notes of the source that are not given here.
Legend:
MRSA = assay: MIC testing by broth dilution, MRSA; assay type: cell-based, Staphylococcus aureus
How it was run: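 Values are broth-dilution MICs, defined as the well showing no growth on visual reading after 24 h; the tested range was 32 to 0.06 μg/ml, in organism-specific media (LB, Trypticase Soy, Brain Heart Infusion). The C. difficile entries come instead from anaerobic Kirby-Bauer disk zones, normalised to NTZ.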

[1] = tested on: PFOR (pyruvate ferredoxin oxidoreductase); assay: Direct PFOR enzyme assay; assay type: biochemical
Protocol: Representative compounds of the invention were tested in a series of assays against a series of organisms as described above. […] The organisms tested include, C. difficile, H. pylori, C. jejuni, MRSA, S. epidermidis, and E. coli. S. epidermidis and E. coli were tested in the plank and biofilm assay. A disk diffusion assay was also used for C. difficile. Direct PFOR enzyme assays were also performed. All analogues and derivatives were not tested on every organism in every type of assay (the “-” in each table means that it was not tested).

S. epidermidis = assay: MIC testing by broth dilution, S. epidermidis plank; assay type: cell-based, Staphylococcus epidermidis
How it was run: (§1)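 Compounds were diluted serially from 32 μg/ml to 0.06 in medium holding a standard inoculum, then visually scored at 24 h, and the lowest well without growth was recorded. Media were LB for E. coli, Trypticase Soy for S. epidermidis and Brain Heart Infusion for C. jejuni. C. difficile zones were measured anaerobically relative to NTZ.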

C. difficile = assay: Disk diffusion (Kirby Bower), C. difficile; assay type: cell-based, Clostridium difficile; conditions: for Disk Diff (%) C. difficile: Nitazoxanide = 100; for Disk Diffusion (%) C. difficile: zone of inhibited growth as relative ratio to the zone for NTZ
How it was run: as §1

C. jejuni = assay: MIC testing by broth dilution, C. jejuni; assay type: cell-based, Campylobacter jejuni
How it was run: as §1

E. coli = assay: MIC testing by broth dilution, E. coli plank; assay type: cell-based, Escherichia coli
How it was run: as §1

H. pylori = assay: MIC testing by broth dilution, H. pylori; assay type: cell-based, Helicobacter pylori
How it was run: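 Helicobacter pylori was tested using a standard broth dilution method in 96 well microplates, each well holding a standard dilution of the organism in 100 microliters of Brain Heart Infusion. Compounds started at 32 μg/ml in 200 microliters in the first well and were serially diluted from 32 to 0.06. Wells were read visually at 24 h, and the MIC was the well with no growth.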

[2] = broth dilution, Trypticase Soy, 24 h, read-out: MIC (μM) MRSA
[3] = broth dilution, Trypticase Soy, 24 h, read-out: MIC (μM) S. epidermidis Plank
[4] = broth dilution, Brain Heart Infusion, 24 h, read-out: MIC (μM) C. jejuni
[5] = broth dilution, LB medium, 24 h, read-out: MIC (μM) E. coli Plank
[6] = broth dilution, Brain Heart Infusion, 24 h, read-out: MIC (μM) H. pylori
[7] = Campylobacter jejuni, 24 h, read-out: MIC (μM) C. jejuni
[8] = Escherichia coli, 24 h, read-out: MIC (μM) E. coli Plank
[9] = Helicobacter pylori, 24 h, read-out: MIC (μM) H. pylori
[10] = 2-amino-3,5-dinitrothiophene analogues table, read-out: MIC MRSA
[11] = * biphasic initial inhibition followed by uninhibited rate, ** caused some precipitant in extract
[12] = planktonic, 2-amino-3,5-dinitrothiophene analogues table, read-out: MIC S. epidermidis Plank
[13] = 2-amino-3,5-dinitrothiophene analogues table
[14] = 2-amino-3,5-dinitrothiophene analogues table, read-out: MIC C. jejuni
[15] = planktonic, 2-amino-3,5-dinitrothiophene analogues table, read-out: MIC E. coli Plank
[16] = 2-amino-3,5-dinitrothiophene analogues table, read-out: MIC H. pylori

With `O=C(Nc1ncc([N+](=O)[O-])s1)c1ccsc1` [VPC16a1008] the MIC (MRSA; Thiophene analogues table, read-out: MIC MRSA) was 23.5 µM (≈ 6 µg/mL), the “PFOR inhibition relative to nitazoxanide (=100)” value ([1]; Thiophene analogues table) was 96% and the MIC (S. epidermidis; planktonic, Thiophene analogues table, read-out: MIC S. epidermidis Plank) was 15.7 µM (≈ 4.01 µg/mL). The “Disk Diff (%) C. difficile” value (C. difficile; Thiophene analogues table) was 100%, the MIC (C. jejuni; Thiophene analogues table, read-out: MIC C. jejuni) was 5.9 µM (≈ 1.51 µg/mL) and the MIC (E. coli; planktonic, Thiophene analogues table, read-out: MIC E. coli Plank) was 125.4 µM (≈ 32 µg/mL). For the same compound, the MIC (H. pylori; Thiophene analogues table, read-out: MIC H. pylori) was 0.7 µM (≈ 0.179 µg/mL).
In the case of `O=C(Nc1ncc([N+](=O)[O-])s1)c1cc(C(F)(F)F)cc(C(F)(F)F)c1` [VPC16a1039], the MIC (MRSA; [2]) is reported as 2.6 µM (≈ 1 µg/mL), the “PFOR inhibition relative to nitazoxanide (=100)” value [1] is reported as 54* % and the MIC (S. epidermidis; [3]) is reported as 1.9 µM (≈ 0.732 µg/mL). For the same compound, the “Disk Diffusion (%) C. difficile” value (C. difficile) was 80%, the MIC (C. jejuni; [4]) was 41.5 µM (≈ 16 µg/mL) and the MIC (E. coli; [5]) was 83.1 µM (≈ 32 µg/mL). It also gave an MIC (H. pylori; [6]) of 5.2 µM (≈ 2 µg/mL).
With `O=C(Nc1ncc([N+](=O)[O-])s1)c1cc(C(F)(F)F)ccc1Cl` [VPC16a1040] the MIC (MRSA; [2]) was 22.7 µM (≈ 7.98 µg/mL), the “PFOR inhibition relative to nitazoxanide (=100)” value [1] was 68% and the MIC (S. epidermidis; [3]) was 22.7 µM (≈ 7.98 µg/mL). The “Disk Diffusion (%) C. difficile” value (C. difficile) was 90%, the MIC (C. jejuni; [4]) was 17.1 µM (≈ 6.01 µg/mL) and the MIC (E. coli; [5]) was 91.0 µM (≈ 32 µg/mL). The MIC (H. pylori; [6]) was 1.1 µM (≈ 0.387 µg/mL).
In the case of `O=C(Nc1ncc([N+](=O)[O-])s1)c1cccnc1F` [VPC16a1052, 2-Fluoro-N-(5-nitrothiazol-2-yl)nicotinamide], the “PFOR inhibition relative to nitazoxanide (=100)” value [1] is reported as 91%, the “Disk Diffusion (%) C. difficile” value (C. difficile) is reported as 100% and the MIC (C. jejuni; [7]) is reported as 7.5 µM (≈ 2.01 µg/mL). The MIC (E. coli; [8]) was 119 µM (≈ 32 µg/mL) and the MIC (H. pylori; [9]) was 3.7 µM (≈ 0.992 µg/mL).
`O=C(Nc1ncc([N+](=O)[O-])s1)c1ccc(Cl)c(C(F)(F)F)c1` [VPC16a1060] was tested, and the “PFOR inhibition relative to nitazoxanide (=100)” value [1] was 63* %, the “Disk Diffusion (%) C. difficile” value (C. difficile) was 89% and the MIC (C. jejuni; [7]) was 2.8 µM (≈ 0.985 µg/mL). It also gave an MIC (E. coli; [8]) of 91 µM (≈ 32 µg/mL) and an MIC (H. pylori; [9]) of 2.8 µM (≈ 0.985 µg/mL).
`O=C(Nc1sc([N+](=O)[O-])cc1[N+](=O)[O-])c1ccccc1` [VPC16b1090] was tested, and the MIC (MRSA; [10]) was 109.1 µM (≈ 32 µg/mL), the “PFOR inhibition relative to nitazoxanide (=100)” value [1, 11] was 100** % and the MIC (S. epidermidis; [12]) was 5.1 µM (≈ 1.5 µg/mL). For the same compound, the “Disk Diff (%) C. difficile” value (C. difficile; [13]) was 0%, the MIC (C. jejuni; [14]) was 0.9 µM (≈ 0.264 µg/mL) and the MIC (E. coli; [15]) was 109.1 µM (≈ 32 µg/mL). The MIC (H. pylori; [16]) was 1.3 µM (≈ 0.381 µg/mL).
`O=C(Nc1sc([N+](=O)[O-])cc1[N+](=O)[O-])c1cccc(C(F)(F)F)c1` [VPC16b1092] was tested, and the MIC (MRSA; [10]) was 1.4 µM (≈ 0.506 µg/mL), the “PFOR inhibition relative to nitazoxanide (=100)” value [1, 11] was 87** % and the MIC (S. epidermidis; [12]) was 0.2 µM (≈ 0.0723 µg/mL). The “Disk Diff (%) C. difficile” value (C. difficile; [13]) was 59%, the MIC (C. jejuni; [14]) was 2.1 µM (≈ 0.759 µg/mL) and the MIC (E. coli; [15]) was 88.6 µM (≈ 32 µg/mL). The MIC (H. pylori; [16]) was 0.5 µM (≈ 0.181 µg/mL).
In the case of `O=C(Nc1sc([N+](=O)[O-])cc1[N+](=O)[O-])c1cccs1` [VPC16b1093, N-(3,5-Dinitrothiophen-2-yl)thiophene-2-carboxamide], the MIC (MRSA; Staphylococcus aureus, MRSA, read-out: MIC MRSA) is reported as 26.7 µM (≈ 7.99 µg/mL), the “PFOR inhibition relative to nitazoxanide (=100)” value [1, 11] is reported as 143% and the MIC (S. epidermidis; Staphylococcus epidermidis, read-out: MIC S. epidermidis Plank) is reported as 13.4 µM (≈ 4.01 µg/mL). For the same compound, the “Disk Diff (%) C. difficile” value (C. difficile; [13]) was 43%, the MIC (C. jejuni; Campylobacter jejuni, read-out: MIC C. jejuni) was 1 µM (≈ 0.299 µg/mL) and the MIC (E. coli; Escherichia coli, read-out: MIC E. coli Plank) was 107 µM (≈ 32 µg/mL). For the same compound, the MIC (H. pylori; Helicobacter pylori, read-out: MIC H. pylori) was 2.5 µM (≈ 0.748 µg/mL).
For `O=C(Nc1sc([N+](=O)[O-])cc1[N+](=O)[O-])c1ccoc1` [VPC16b1094], the MIC (MRSA; [10]) was 56.5 µM (≈ 16 µg/mL), the “PFOR inhibition relative to nitazoxanide (=100)” value [1, 11] was 126* % and the MIC (S. epidermidis; [12]) was 28.2 µM (≈ 7.99 µg/mL). The “Disk Diff (%) C. difficile” value (C. difficile; [13]) was 53%, the MIC (C. jejuni; [14]) was 0.4 µM (≈ 0.113 µg/mL) and the MIC (E. coli; [15]) was 113.0 µM (≈ 32 µg/mL). It also gave an MIC (H. pylori; [16]) of 2.7 µM (≈ 0.765 µg/mL).
With `O=C(Nc1sc([N+](=O)[O-])cc1[N+](=O)[O-])c1ccc(Br)o1` [VPC16b2023] the MIC (MRSA; [10]) was 33.1 µM (≈ 12 µg/mL), the “PFOR inhibition relative to nitazoxanide (=100)” value [1, 11] was 94** % and the MIC (S. epidermidis; [12]) was 88.4 µM (≈ 32 µg/mL). The MIC (C. jejuni; [14]) was 2.8 µM (≈ 1.01 µg/mL) and the MIC (H. pylori; [16]) was 2.1 µM (≈ 0.76 µg/mL).
